The values below come from patent publication US20030153513A1, “Preventives or remedies for obesity or fatty liver” (priority 2000, published 2003).

Holding throughout (type): in vivo
The test system of test [1] is C57BL/6J mice. Briefly: Test Example 1: body weight increase, non-obesity normal mice, 12 weeks oral. To be noted: non-obesity normal C57BL/6J mice, 10 mg/kg/day oral, FIG. 1-A. The protocol: (§1) In the test example, each 10 of the male KKA^y/Ta Jcl mice and C57BL/6J mice aged 10 weeks were used as obesity model mice and non-obesity normal model mice, respectively. The compound of Preparation 1 was orally administered to the animals at 10 mg/kg/day for 12 weeks continuously, and the body weights of the animals were daily measured. Four hours after the final administration of the compound, the animals were sacrificed, and the levels of triglyceride in the liver tissues were determined.
(§2) The compound of Preparation 1 had been suspended in an aqueous solution of 5% gum arabic (Nakarai Chemcial, Lot. M5E5329) to provide a 0.1% suspension for use. As a control, only a vehicle (5% aqueous gum arabic solution) was administered as well, and the triglyceride level was also determined.

Test [2] has as its system KKA^y/Ta Jcl mice. Briefly: Test Example 1: body weight increase, obesity model mice, 12 weeks oral. To be noted: 10 mg/kg/day oral, FIG. 1-B. The protocol: as §1, §2
Test [3] relates to C57BL/6J mice. Briefly: Test Example 1: triglyceride level in liver tissue, normal mice, 12 weeks oral. Particulars: oral administration for 12 weeks, 10 mg/kg/day, 4 h after final dose. The method, then:
as §1, §2

For test [4], the system named is KKA^y/Ta Jcl mice. Briefly: Test Example 1: triglyceride level in liver tissue, obesity model mice, 12 weeks oral. To be noted: 10 mg/kg/day. The protocol:
as §1, §2

The next test relates to KKAy/Ta Jcl mice. Briefly: Test Example 2: triglyceride level in liver tissue, obesity model mice, 2 weeks. The protocol:
In a similar way to Test Example 1, the male KKAy/Ta Jcl mice aged 10 weeks were orally administered with the compound of Preparation 1 at 10 mg/kg/day, and fed a diet containing 3% cholestyramine (corresponding to about 4 g/kg/day) for two weeks continuously, and the level of triglyceride in the liver tissue was determined (eight animals per group). Also, the control was administered with only a vehicle (5% aqueous gum arabic solution).

For `CCC(CC)CC(=O)c1c(C(=O)OC)c(-c2ccc(OC)c(OC)c2)c2c(OC)c(OC)c(OC)cc2c1O` [Compound of Prep. 1, Methyl 1-(3,4-dimethoxyphenyl)-3-(3-ethylvalelyl)-4-hydroxy-6,7,8-trimethoxy-2-naphthoate], the “rate of increase in body weight compared with the control” value with C57BL/6J mice [1] was “no significant difference”. Also, the “inhibition of weight gain” value in the test on KKA^y/Ta Jcl mice [2] is “significant inhibition of weight gain”. For the same compound, the “triglyceride (liver tissue)” value came out at 13.2 ± 1.2 mg/g in the test on C57BL/6J mice [3]; 74.7 ± 7.4 mg/g in the test with KKA^y/Ta Jcl mice [4] (KKA^y mice, oral administration for 12 weeks, 4 h after final dose); 49.2 ± 7.7 mg/g in the test with KKAy/Ta Jcl mice (administration for 2 weeks, Prep. 1 10 mg/kg/day oral, cholestyramine 3% in diet (about 4 g/kg/day)). Further, the “triglyceride level in the liver tissue compared to the control (in words)” value with KKA^y/Ta Jcl mice [4] (12 weeks oral, as shown in Table 1) is on record as “significant decrease”; in the test on KKAy/Ta Jcl mice (2 weeks, as shown in Table 2), “significant decrease”.
